Assay results: patent US9334263B2, “Compositions useful for treating disorders related to kit” (BLUEPRINT MEDICINES CORPORATION, priority 2013, dated 2016)

Target: T1, D816V Kit (Homo sapiens, UniProt P10721, D816V)
T1 construct: purchased Carna Bioscience 08-156
Test: Kit D816V assay at Km (Caliper electrophoretic mobility shift)
Type: biochemical
Conditions: 15 uM ATP, 25 C, 90 minutes
Description: In order to assess the activity of chemical compounds against the relevant kinase of interest, the Caliper LifeSciences electrophoretic mobility shift technology platform is used. Fluorescently labeled substrate peptide is incubated in the presence of kinase and ATP so that a […] proportion of the peptide is phosphorylated. At the end of the reaction, the mix of phosphorylated (product) and non-phosphorylated (substrate) peptides are passed through the microfluidic system of the Caliper EZ Reader 2, under an applied potential difference. The presence of the phosphate group on the product peptide provides a difference in mass and charge between those of the substrate peptide, resulting in a separation of the substrate and product pools in the sample. As the pools pass a LEDS within the instrument, these pools are detected and resolved as separate peaks. The ratio between these peaks therefore reflects the activity of the chemical matter at that concentration in that well, under those conditions.
The reaction was stopped by the addition of 70 ul of Stop buffer (100 mM HEPES pH 7.5, 0.015% Brij 35, 35 mM EDTA and 0.2% of Coating Reagent 3 (Caliper Lifesciences)). The plate was then read on a Caliper EZReader 2 (protocol settings: −1.9 psi, upstream voltage −700, downstream voltage −3000, post sample sip 35 s).

T1 sequence (P10721 26-976 D816V): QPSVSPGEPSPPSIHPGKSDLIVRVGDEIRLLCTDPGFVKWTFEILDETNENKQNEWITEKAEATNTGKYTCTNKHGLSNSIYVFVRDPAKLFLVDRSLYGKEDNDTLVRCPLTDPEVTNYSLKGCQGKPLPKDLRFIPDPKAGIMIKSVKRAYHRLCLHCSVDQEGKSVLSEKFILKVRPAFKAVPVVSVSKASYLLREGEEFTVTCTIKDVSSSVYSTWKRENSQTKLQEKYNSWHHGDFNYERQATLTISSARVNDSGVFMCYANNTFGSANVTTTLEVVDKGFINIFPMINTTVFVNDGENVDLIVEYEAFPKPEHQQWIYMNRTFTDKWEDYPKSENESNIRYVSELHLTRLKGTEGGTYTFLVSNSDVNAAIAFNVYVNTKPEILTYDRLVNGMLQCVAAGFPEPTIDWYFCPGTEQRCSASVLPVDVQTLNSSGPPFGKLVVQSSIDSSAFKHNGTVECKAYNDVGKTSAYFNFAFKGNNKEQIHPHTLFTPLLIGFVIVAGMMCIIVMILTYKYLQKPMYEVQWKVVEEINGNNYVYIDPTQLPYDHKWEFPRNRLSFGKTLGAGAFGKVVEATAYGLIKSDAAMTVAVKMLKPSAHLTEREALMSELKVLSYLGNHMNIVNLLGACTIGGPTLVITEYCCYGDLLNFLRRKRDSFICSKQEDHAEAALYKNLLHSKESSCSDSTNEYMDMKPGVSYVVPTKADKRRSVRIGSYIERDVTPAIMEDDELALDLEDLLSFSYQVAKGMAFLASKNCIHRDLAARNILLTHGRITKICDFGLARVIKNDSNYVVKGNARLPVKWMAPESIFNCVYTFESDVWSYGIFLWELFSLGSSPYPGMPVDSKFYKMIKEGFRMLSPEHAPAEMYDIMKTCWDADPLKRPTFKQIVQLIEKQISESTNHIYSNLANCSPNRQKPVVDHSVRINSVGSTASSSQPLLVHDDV

SMILES | IC50
CC1(Cn2cc(Nc3ncnc(N4CCN(c5ncc(Cc6ccccc6)cn5)CC4)n3)cn2)COC1 [Compound 87] | 1.01 to 10 nM
Brc1cnc(N2CCN(c3ncnc(Nc4cnn(C[C@@H]5CNCCO5)c4)n3)CC2)nc1 [Compound 91] | 1.01 to 10 nM
OC[C@@H](O)c1ccc(Nc2ncnc(N3CCN(c4ncc(Cc5ccc(F)cc5)cn4)CC3)n2)cc1 [Compound 92] | < 1 nM
OC[C@H](O)c1ccc(Nc2ncnc(N3CCN(c4ncc(Cc5ccc(F)cc5)cn4)CC3)n2)cc1 [Compound 93] | < 1 nM
c1ccc(Cc2cnc(N3CCN(c4ncnc(Nc5ccc6c(c5)CNCC65CC5)n4)CC3)nc2)cc1 [Compound 97] | < 1 nM
CC1(C)CNCc2cc(Nc3ncnc(N4CCN(c5ncc(Cc6ccccc6)cn5)CC4)n3)ccc21 [Compound 99] | 1.01 to 10 nM
C[C@H](O)Cn1cc(Nc2ncnc(N3CCN(c4ncc(Sc5ccccc5F)cn4)CC3)n2)cn1 [Compound 100] | < 1 nM
c1ccc(Cc2cnc(N3CCN(c4ncnc(Nc5ccc(O[C@@H]6CCNC6)cc5)n4)CC3)nc2)cc1 [Compound 107] | < 1 nM
c1ccc(Cc2cnc(N3CCN(c4ncnc(Nc5ccc(O[C@H]6CCNC6)cc5)n4)CC3)nc2)cc1 [Compound 108] | < 1 nM
OCc1ccccc1Cc1cnc(N2CCN(c3ncnc(Nc4ccc5c(c4)CNCC5)n3)CC2)nc1 [Compound 109] | < 1 nM
OCc1nc(N2CCN(c3ncnc(Nc4ccc5c(c4)CNCC5)n3)CC2)ncc1Cc1ccccc1 [Compound 110] | < 1 nM
O[C@@H]1CCN(c2ccc(Nc3ncnc(N4CCN(c5ncc(Cc6ccccc6)cn5)CC4)n3)cc2)C1 [Compound 111] | 1.01 to 10 nM
O[C@H]1CCN(c2ccc(Nc3ncnc(N4CCN(c5ncc(Cc6ccccc6)cn5)CC4)n3)cc2)C1 [Compound 112] | 1.01 to 10 nM
COc1ccccc1Cc1cnc(N2CCN(c3ncnc(Nc4ccc5c(c4)CNCC5)n3)CC2)nc1 [Compound 113] | 1.01 to 10 nM
CC(C)(c1ccccc1)c1cnc(N2CCN(c3ncnc(Nc4ccc([C@H](O)CO)cc4)n3)CC2)nc1 [Compound 119] | < 1 nM
CC(C)(c1ccccc1)c1cnc(N2CCN(c3ncnc(Nc4ccc([C@@H](O)CO)cc4)n3)CC2)nc1 [Compound 120] | < 1 nM
CC(C)(O)[C@H](O)c1ccc(Nc2ncnc(N3CCN(c4ncc(Cc5ccccc5)cn4)CC3)n2)cc1 [Compound 121] | < 1 nM
CC(C)(O)[C@@H](O)c1ccc(Nc2ncnc(N3CCN(c4ncc(Cc5ccccc5)cn4)CC3)n2)cc1 [Compound 122] | < 1 nM
c1ccc(Cc2cnc(N3CCN(c4ncnc(Nc5cnn(C[C@H]6COCCN6)c5)n4)CC3)nc2)cc1 [Compound 125] | < 1 nM

SMILES | IC50
c1ccc(Cc2cnc(N3CCN(c4ncnc(Nc5cnn(C[C@@H]6COCCN6)c5)n4)CC3)nc2)cc1 [Compound 126] | 1.01 to 10 nM
OC[C@@H](O)COc1ccc(Nc2ncnc(N3CCN(c4ncc(Cc5ccccc5)cn4)CC3)n2)cc1 [Compound 129] | 1.01 to 10 nM
OC[C@@H](O)COc1cccc(Nc2ncnc(N3CCN(c4ncc(Cc5ccccc5)cn4)CC3)n2)c1 [Compound 130] | 1.01 to 10 nM
OC[C@H](O)COc1ccc(Nc2ncnc(N3CCN(c4ncc(Cc5ccccc5)cn4)CC3)n2)cc1 [Compound 131] | 1.01 to 10 nM
OC[C@H](O)COc1cccc(Nc2ncnc(N3CCN(c4ncc(Cc5ccccc5)cn4)CC3)n2)c1 [Compound 132] | < 1 nM
c1ccc(Cc2cnc(N3CCN(c4ncnc(Nc5cnn(C[C@H]6COCCO6)c5)n4)CC3)nc2)cc1 [Compound 133] | < 1 nM
c1ccc(Cc2cnc(N3CCN(c4ncnc(Nc5cnn(C[C@@H]6COCCO6)c5)n4)CC3)nc2)cc1 [Compound 134] | < 1 nM
c1ccc(Nc2cnc(N3CCN(c4ncnc(Nc5cnn(C[C@@H]6CNCCO6)c5)n4)CC3)nc2)cc1 [Compound 135] | 1.01 to 10 nM
Fc1cccc(F)c1Cc1cnc(N2CCN(c3ncnc(Nc4ccc5c(c4)CNCC5)n3)CC2)nc1 [Compound 136] | 1.01 to 10 nM
Fc1cccc(Cc2cnc(N3CCN(c4ncnc(Nc5ccc6c(c5)CNCC6)n4)CC3)nc2)c1F [Compound 137] | 1.01 to 10 nM
Fc1ccc(Cc2cnc(N3CCN(c4ncnc(Nc5ccc6c(c5)CNCC6)n4)CC3)nc2)c(F)c1 [Compound 138] | < 1 nM
Fc1ccc(Cc2cnc(N3CCN(c4ncnc(Nc5ccc6c(c5)CNCC6)n4)CC3)nc2)cc1F [Compound 139] | 1.01 to 10 nM
[2H]C([2H])(c1ccccc1)c1cnc(N2CCN(c3ncnc(Nc4cnn(C[C@@H]5CNCCO5)c4)n3)CC2)nc1 [Compound 141] | 1.01 to 10 nM
c1ccc(Cc2cnc(N3CCN(c4ncnc(Nc5ccc6c(c5)CN(C5CC5)CC6)n4)CC3)nc2)cc1 [Compound 145] | 10 to 100 nM
Cc1nn(C2COC2)cc1Nc1ncnc(N2CCN(c3ncc(Sc4ccccc4F)cn3)CC2)n1 [Compound 146] | 1.01 to 10 nM
Cc1c(Nc2ncnc(N3CCN(c4ncc(Sc5ccccc5F)cn4)CC3)n2)cnn1C1COC1 [Compound 147] | 1.01 to 10 nM
CC(C)(O)Cn1cc(Nc2ncnc(N3CCN(c4ncc(Sc5ccccc5F)cn4)CC3)n2)cn1 [Compound 150] | 1.01 to 10 nM
Cc1c(Nc2ncnc(N3CCN(c4ncc(Sc5ccc(F)cc5)cn4)CC3)n2)cnn1C[C@H](C)O [Compound 151] | 1.01 to 10 nM
Cc1nn(C[C@H](C)O)cc1Nc1ncnc(N2CCN(c3ncc(Sc4ccc(F)cc4)cn3)CC2)n1 [Compound 152] | < 1 nM

Target: T2, Kit D816V (HMC1.2 cells, Kit V560G and D816V) (Homo sapiens, UniProt P10721, D816V/V560G)
T2 construct: endogenous in cells; host or cells: HMC1.2 cells
T2 sequence (P10721 26-976 V560G/D816V): as the sequence (P10721 26-976 D816V) above, with V535G counted along it
Test: HMC1.2 autophosphorylation assay (AlphaLISA, phospho-Y719 c-Kit)
Type: cell-based
Conditions: Kit autophosphorylation at tyrosine 719, 90 minutes, read-out: Cellular Activity
Description: HMC1.2 Autophosphorylation Assay:
10,000 HMC1.2 cells were incubated in 22 ul culture media (phenol-red free IMDM, no serum) in each well of a 384-well plate and serum starved overnight in a tissue culture incubator (5% CO2, 37° C.). A 10-point dose concentration series of compound (25 uM-95.4 pM) were then added to the cells in a volume of 3.1 ul to each well (0.25% DMSO final concentration). After 90 minutes, 6 ul of 5× AlphaLISA Lysis Buffer (Perkin Elmer) supplemented with a protease and phosphatase inhibitor cocktail (Cell Signaling Technologies) was added to each well and shaken at 450 rpm for 15 minutes at 4° C. 10 ul of phospho-Y719 c-Kit and total c-Kit antibodies (15 nM final concentration, Cell Signaling Technologies) and 50 ug/ml AlphaLISA rabbit acceptor beads (Perkin Elmer) were added to each well and shaken at 300 rpm at room temperature for 2 hours. 10 ul of 100 ug/ml streptavidin donor beads (Perkin Elmer) were added to each well, blocked from light with aluminum adhesive and shaken at 300 rpm at room temperature for 2 hours. Fluorescence signal was obtained on Envision (Perkin Elmer) by AlphaScreen 384 well HTS protocol.
This cell line contains Kit mutated at positions V560G and D816V resulting in constitutive activation of the kinase. The following compounds were tested in an assay to measure direct inhibition of Kit D816V kinase activity by assaying Kit autophosphorylation at tyrosine 719 on the Kit protein.

SMILES | IC50
CC1(Cn2cc(Nc3ncnc(N4CCN(c5ncc(Cc6ccccc6)cn5)CC4)n3)cn2)COC1 [Compound 87] | 10 to 100 nM
Brc1cnc(N2CCN(c3ncnc(Nc4cnn(C[C@@H]5CNCCO5)c4)n3)CC2)nc1 [Compound 91] | 1000 to 10000 nM
OC[C@@H](O)c1ccc(Nc2ncnc(N3CCN(c4ncc(Cc5ccc(F)cc5)cn4)CC3)n2)cc1 [Compound 92] | 10 to 100 nM
OC[C@H](O)c1ccc(Nc2ncnc(N3CCN(c4ncc(Cc5ccc(F)cc5)cn4)CC3)n2)cc1 [Compound 93] | 10 to 100 nM
c1ccc(Cc2cnc(N3CCN(c4ncnc(Nc5ccc6c(c5)CNCC65CC5)n4)CC3)nc2)cc1 [Compound 97] | 10 to 100 nM
CC1(C)CNCc2cc(Nc3ncnc(N4CCN(c5ncc(Cc6ccccc6)cn5)CC4)n3)ccc21 [Compound 99] | < 10 nM
C[C@H](O)Cn1cc(Nc2ncnc(N3CCN(c4ncc(Sc5ccccc5F)cn4)CC3)n2)cn1 [Compound 100] | 10 to 100 nM
c1ccc(Cc2cnc(N3CCN(c4ncnc(Nc5ccc(O[C@@H]6CCNC6)cc5)n4)CC3)nc2)cc1 [Compound 107] | 10 to 100 nM
c1ccc(Cc2cnc(N3CCN(c4ncnc(Nc5ccc(O[C@H]6CCNC6)cc5)n4)CC3)nc2)cc1 [Compound 108] | 10 to 100 nM
OCc1ccccc1Cc1cnc(N2CCN(c3ncnc(Nc4ccc5c(c4)CNCC5)n3)CC2)nc1 [Compound 109] | < 10 nM
OCc1nc(N2CCN(c3ncnc(Nc4ccc5c(c4)CNCC5)n3)CC2)ncc1Cc1ccccc1 [Compound 110] | 10 to 100 nM
O[C@@H]1CCN(c2ccc(Nc3ncnc(N4CCN(c5ncc(Cc6ccccc6)cn5)CC4)n3)cc2)C1 [Compound 111] | 10 to 100 nM
O[C@H]1CCN(c2ccc(Nc3ncnc(N4CCN(c5ncc(Cc6ccccc6)cn5)CC4)n3)cc2)C1 [Compound 112] | 100 to 1000 nM
COc1ccccc1Cc1cnc(N2CCN(c3ncnc(Nc4ccc5c(c4)CNCC5)n3)CC2)nc1 [Compound 113] | 100 to 1000 nM
CC(C)(c1ccccc1)c1cnc(N2CCN(c3ncnc(Nc4ccc([C@H](O)CO)cc4)n3)CC2)nc1 [Compound 119] | < 10 nM
CC(C)(c1ccccc1)c1cnc(N2CCN(c3ncnc(Nc4ccc([C@@H](O)CO)cc4)n3)CC2)nc1 [Compound 120] | 10 to 100 nM
CC(C)(O)[C@H](O)c1ccc(Nc2ncnc(N3CCN(c4ncc(Cc5ccccc5)cn4)CC3)n2)cc1 [Compound 121] | 10 to 100 nM
CC(C)(O)[C@@H](O)c1ccc(Nc2ncnc(N3CCN(c4ncc(Cc5ccccc5)cn4)CC3)n2)cc1 [Compound 122] | 10 to 100 nM
c1ccc(Cc2cnc(N3CCN(c4ncnc(Nc5cnn(C[C@H]6COCCN6)c5)n4)CC3)nc2)cc1 [Compound 125] | 10 to 100 nM

SMILES | IC50
c1ccc(Cc2cnc(N3CCN(c4ncnc(Nc5cnn(C[C@@H]6COCCN6)c5)n4)CC3)nc2)cc1 [Compound 126] | 100 to 1000 nM
OC[C@@H](O)COc1ccc(Nc2ncnc(N3CCN(c4ncc(Cc5ccccc5)cn4)CC3)n2)cc1 [Compound 129] | 10 to 100 nM
OC[C@@H](O)COc1cccc(Nc2ncnc(N3CCN(c4ncc(Cc5ccccc5)cn4)CC3)n2)c1 [Compound 130] | 10 to 100 nM
OC[C@H](O)COc1ccc(Nc2ncnc(N3CCN(c4ncc(Cc5ccccc5)cn4)CC3)n2)cc1 [Compound 131] | 10 to 100 nM
OC[C@H](O)COc1cccc(Nc2ncnc(N3CCN(c4ncc(Cc5ccccc5)cn4)CC3)n2)c1 [Compound 132] | 10 to 100 nM
c1ccc(Cc2cnc(N3CCN(c4ncnc(Nc5cnn(C[C@H]6COCCO6)c5)n4)CC3)nc2)cc1 [Compound 133] | 10 to 100 nM
c1ccc(Cc2cnc(N3CCN(c4ncnc(Nc5cnn(C[C@@H]6COCCO6)c5)n4)CC3)nc2)cc1 [Compound 134] | 10 to 100 nM
c1ccc(Nc2cnc(N3CCN(c4ncnc(Nc5cnn(C[C@@H]6CNCCO6)c5)n4)CC3)nc2)cc1 [Compound 135] | 10 to 100 nM
Fc1cccc(F)c1Cc1cnc(N2CCN(c3ncnc(Nc4ccc5c(c4)CNCC5)n3)CC2)nc1 [Compound 136] | 100 to 1000 nM
Fc1cccc(Cc2cnc(N3CCN(c4ncnc(Nc5ccc6c(c5)CNCC6)n4)CC3)nc2)c1F [Compound 137] | 10 to 100 nM
Fc1ccc(Cc2cnc(N3CCN(c4ncnc(Nc5ccc6c(c5)CNCC6)n4)CC3)nc2)c(F)c1 [Compound 138] | 10 to 100 nM
Fc1ccc(Cc2cnc(N3CCN(c4ncnc(Nc5ccc6c(c5)CNCC6)n4)CC3)nc2)cc1F [Compound 139] | 10 to 100 nM
[2H]C([2H])(c1ccccc1)c1cnc(N2CCN(c3ncnc(Nc4cnn(C[C@@H]5CNCCO5)c4)n3)CC2)nc1 [Compound 141] | 10 to 100 nM
c1ccc(Cc2cnc(N3CCN(c4ncnc(Nc5ccc6c(c5)CN(C5CC5)CC6)n4)CC3)nc2)cc1 [Compound 145] | 10 to 100 nM
Cc1nn(C2COC2)cc1Nc1ncnc(N2CCN(c3ncc(Sc4ccccc4F)cn3)CC2)n1 [Compound 146] | 10 to 100 nM
Cc1c(Nc2ncnc(N3CCN(c4ncc(Sc5ccccc5F)cn4)CC3)n2)cnn1C1COC1 [Compound 147] | 100 to 1000 nM
CC(C)(O)Cn1cc(Nc2ncnc(N3CCN(c4ncc(Sc5ccccc5F)cn4)CC3)n2)cn1 [Compound 150] | 10 to 100 nM
Cc1c(Nc2ncnc(N3CCN(c4ncc(Sc5ccc(F)cc5)cn4)CC3)n2)cnn1C[C@H](C)O [Compound 151] | 10 to 100 nM
Cc1nn(C[C@H](C)O)cc1Nc1ncnc(N2CCN(c3ncc(Sc4ccc(F)cc4)cn3)CC2)n1 [Compound 152] | < 10 nM
